From patent publication US20260174778A1, “SULFONAMIDE COMPOUND, AND PREPARATION METHOD THEREFOR AND USE THEREOF” (SHANGHAI HENLIUS BIOTECH, INC., priority 2023, published 2026)

Tested on: breast cancer cell line ZR-75-1
Test: Inhibition of proliferation of breast cancer cell line ZR-75-1 (CellTiter-Glo)
Assay type: cell-based
Conditions: Homo sapiens, 240 h, proliferation of ZR-75-1 cells, 10 days of incubation, read-out: IC50 (KAT6A)

| Compound | IC50 |
| --- | --- |
| COc1ccc2c(c1S(=O)(=O)Nc1noc3cc(Cn4cccn4)c(F)c(OC)c13)OCCN2C [Compound 109, N-(6-((1H-Pyrazol-1-yl)methyl)-5-fluoro-4-methoxybenzo[d]isoxazol-3-yl)-7-methoxy-4-methyl-3,4-dihydro-2H-benzo[b][1,4]oxazine-8-sulfonamide] | < 500 pM |
| COc1ccccc1S(=O)(=O)Nc1noc2cc(Cn3cccn3)cc(OC)c12 [PF-8144, reference compound] | 500 to 2000 pM |

Second part, the compound after the results:

| IC50 | Compound |
| --- | --- |
| < 500 pM | COc1ccc2c(c1S(=O)(=O)Nc1noc3cc(Cn4cccn4)c(F)c(OC)c13)OCCO2 [Compound 28, N-(6-((1H-Pyrazol-1-yl)methyl)-5-fluoro-4-methoxybenzo[d]isoxazol-3-yl)-6-methoxy-2,3-dihydrobenzo[b][1,4]dioxine-5-sulfonamide] |
| < 500 pM | COc1ccc2c(c1S(=O)(=O)Nc1noc3cc(Cn4cccn4)c(F)c(OC)c13)OCCC2=O [Compound 42, N-(6-((1H-Pyrazol-1-yl)methyl)-5-fluoro-4-methoxybenzo[d]isoxazol-3-yl)-7-methoxy-4-oxochromane-8-sulfonamide] |
| < 500 pM | COc1ccc2c(c1S(=O)(=O)Nc1noc3cc(Cn4cccn4)c(F)c(OC)c13)OCC=C2 [Compound 101, N-(6-((1H-Pyrazol-1-yl)methyl)-5-fluoro-4-methoxybenzo[d]isoxazol-3-yl)-7-methoxy-2H-chromene-8-sulfonamide] |
